Test results as given in PubChem BioAssay (NCI).
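Briefly, cells in 96-well plates were exposed to five compound concentrations for 48 h, and endpoints were estimated by linear interpolation. TGI is the concentration that stops growth completely.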

How the values were obtained:
Assay in all cases: NCI anticancer screen, dose series, 48 h
HT29 colon = test system: HT29 colon
HCT-116 colon = test system: HCT-116 colon
SF-268 CNS = test system: SF-268 CNS
HCC-2998 colon = test system: HCC-2998 colon
SF-295 CNS = test system: SF-295 CNS
CAKI-1 renal = test system: CAKI-1 renal
COLO 205 colon = test system: COLO 205 colon
SW-620 colon = test system: SW-620 colon
UO-31 renal = test system: UO-31 renal
DLD-1 colon = test system: DLD-1 colon
M19-MEL melanoma = test system: M19-MEL melanoma
LXFL 529 NSCLC = test system: LXFL 529 NSCLC

SMILES	TGI (HT29 colon) [µM]	TGI (HCT-116 colon) [µM]	TGI (SF-268 CNS) [µM]	TGI (HCC-2998 colon) [µM]	TGI (SF-295 CNS) [µM]	TGI (CAKI-1 renal) [µM]	TGI (COLO 205 colon) [µM]	TGI (SW-620 colon) [µM]	TGI (UO-31 renal) [µM]	TGI (DLD-1 colon) [µM]	TGI (M19-MEL melanoma) [µM]	TGI (LXFL 529 NSCLC) [µM]
NC(N)=NS(=O)(=O)c1ccc(NC(=O)c2ccc3nc4ccccc4c(Nc4ccc(S(=O)(=O)N=C(N)N)cc4)c3c2)cc1	> 100	> 100	> 100	> 100	> 100	> 100	> 100	> 100	> 100	–	–	–
c1ccc2c3c(c(N4CCOCC4)nc2c1)CCCC3	> 100	> 100	> 100	> 100	> 100	> 100	46.5	> 100	> 100	–	–	–
Brc1cc2nn(-c3ccccc3)nc2c2nonc12	> 100	> 100	> 100	> 100	> 100	> 100	> 100	> 100	> 100	–	–	–
Cc1cc2[nH]c3c(C#N)c4c(c(=O)n3c2cc1C)CCCC4	> 100	> 100	> 100	> 100	29.5	> 100	> 100	> 100	> 100	–	–	–
O=c1oc2cc(O)ccc2c(O)c1C(c1ccc(C(c2c(O)c3ccc(O)cc3oc2=O)c2c(O)c3ccc(O)cc3oc2=O)cc1)c1c(O)c2ccc(O)cc2oc1=O	> 100	> 100	> 100	> 100	> 100	> 100	> 100	> 100	> 100	–	–	–
COc1ccc2c(c1)CC1=C(O2)c2ccc(OC)cc2OC1	72.9	41.8	68.5	> 100	> 100	37.1	33.8	34.6	> 100	–	–	–
COC(=O)C1CC2(c3ccccc3)C(=O)c3ccccc3N2O1 (stereo unspecified)	> 100	> 100	> 100	> 100	> 100	> 100	> 100	> 100	–	> 100	> 100	> 100
O=[N+]([O-])c1ccc(-c2ccc(-c3csc(Nc4ccccn4)n3)o2)cc1	> 100	> 100	> 100	> 100	> 100	> 100	> 100	> 100	> 100	> 100	> 100	76.8
C=C1C(=O)O[C@@]23C1CC[C@@H](C)C2CC[C@@]1(C)OC31 (stereo partly specified)	25.6	21.3	34.3	16.2	48.9	18.4	3.68	37.5	18.5	–	–	–
CCOC(=O)C(CC#Cc1ccc(C#CCC(NC(C)=O)C(=O)OCC)cc1)NC(C)=O (stereo unspecified)	> 100	> 100	> 100	> 100	> 100	> 100	> 100	> 100	> 100	–	–	–
O=C(O)C(CS)N=c1c2ccccc2n(O)c2ccccc12 (stereo unspecified)	> 100	> 100	> 100	> 100	> 100	> 100	> 100	> 100	> 100	> 100	> 100	> 100
Cc1c2ncccc2cc2oc3ccccc3c(=O)c12	> 100	> 100	> 100	> 100	> 100	> 100	> 100	> 100	> 100	–	–	–
COc1ccc2c(c1)CN1C(=N2)CSC1c1ccccc1Cl (stereo unspecified)	32.8	33.1	76.4	29.8	75.6	> 100	28.3	41.7	38.3	–	–	–
O=c1c(-c2ccc(Cl)cc2)nnc2n(Cc3ccccc3)c3ccccc3n12	> 100	> 100	> 100	> 100	49.4	59.8	> 100	> 100	> 100	–	–	–
O=c1c2ccccc2nc(Nc2cccc(Cl)c2)n1/N=C/C=C/c1ccccc1	> 100	> 100	> 100	> 100	> 100	> 100	> 100	> 100	> 100	–	–	–
O=C1CSC(c2cccs2)N1c1nc2cc3sc(N4C(=O)CSC4c4cccs4)nc3cc2s1 (stereo unspecified)	> 50	> 50	> 50	> 50	> 50	> 50	3.18	> 50	> 50	–	–	–
COc1cc(CN2CCCCC2)cc2cc(C(=O)O)c(=O)oc12	> 100	> 100	> 100	> 100	> 100	> 100	> 100	> 100	> 100	–	–	–
